Columns and labels:
[1] = Selective index, ratio of CC50 for human MT4 cells to EC50 for HIV1 3B
[2] = Cytotoxicity against human MT4 cells as reduction in cell viability after 5 days by MTT assay; format: cell-based

Cc1cn([C@H]2C[C@H](N=[N+]=[N-])[C@@H](CO)O2)c(=O)[nH]c1=O [ZIDOVUDINE]
Ratio CC50/EC50 [1]: >6192
CC50 at 120 h [2]: > 93.5 µM

O=C1Nc2ccc(Cl)cc2[C@@](C#CC2CC2)(C(F)(F)F)O1 [EFAVIRENZ]
Ratio CC50/EC50 [1]: >1434
CC50 at 120 h [2]: > 6.34 µM

CC(C)Nc1cccnc1N1CCN(C(=O)c2cc3cc(NS(C)(=O)=O)ccc3[nH]2)CC1 [DELAVIRDINE]
Ratio CC50/EC50 [1]: >12
CC50 at 120 h [2]: > 3.83 µM

Cc1ccnc2c1NC(=O)c1cccnc1N2C1CC1 [NEVIRAPINE]
CC50 at 120 h [2]: > 15 µM

Reference: ChEMBL document CHEMBL1155290, “Synthesis and anti-HIV activity evaluation of 2-(4-(naphthalen-2-yl)-1,2,3-thiadiazol-5-ylthio)-N-acetamides as novel non-nucleoside HIV-1 reverse transcriptase inhibitors” (Eur J Med Chem, 2009)
